According to ChEMBL document CHEMBL2440076, “New triarylpyrazoles as broad-spectrum anticancer agents: design, synthesis, and biological evaluation” (Eur J Med Chem, 2013):

Experiments:
Assay type in all cases: functional
NCI-H23 [1] = assay: Growth inhibition of human NCI-H23 cells assessed as cell growth at 5X10'-6 M after 48 hrs by sulforhodamine B assay; conditions: NCI-H23, 48 h, read-out: Activity
CCRF-CEM = assay: Growth inhibition of human CCRF-CEM cells assessed as cell growth at 3X10'-5 M after 48 hrs by sulforhodamine B assay; conditions: read-out: Activity
U-251 = assay: Growth inhibition of human U251 cells assessed as cell growth at 3X10'-6 M after 48 hrs by sulforhodamine B assay; conditions: U-251, 48 h, read-out: Activity
MDA-MB-468 [2] = assay: Growth inhibition of human MDA-MB-468 cells assessed as cell growth at 3X10'-6 M after 48 hrs by sulforhodamine B assay; conditions: MDA-MB-468, 48 h, read-out: Activity
HCT-116 [3] = assay: Growth inhibition of human HCT116 cells assessed as cell growth at 3X10'-7 M after 48 hrs by sulforhodamine B assay; conditions: HCT-116, 48 h, read-out: Activity
DU-145 = assay: Growth inhibition of human DU145 cells assessed as cell growth at 3X10'-5 M after 48 hrs by sulforhodamine B assay; conditions: DU-145, 48 h, read-out: Activity
NCI-H322M = assay: Growth inhibition of human NCI-H322M cells assessed as cell growth at 3X10'-9 M after 48 hrs by sulforhodamine B assay; conditions: read-out: Activity
MDA-MB-468 [4] = assay: Growth inhibition of human MDA-MB-468 cells assessed as cell growth at 3X10'-9 M after 48 hrs by sulforhodamine B assay; conditions: MDA-MB-468, 48 h, read-out: Activity
KM12 = assay: Growth inhibition of human KM12 cells assessed as cell growth at 3X10'-9 M after 48 hrs by sulforhodamine B assay; conditions: KM12, 48 h, read-out: Activity
HCT-15 [5] = assay: Growth inhibition of human HCT15 cells assessed as cell growth at 3X10'-7 M after 48 hrs by sulforhodamine B assay; conditions: HCT-15, 48 h, read-out: Activity
UACC-257 [6] = assay: Growth inhibition of human UACC257 cells assessed as cell growth at 3X10'-8 M after 48 hrs by sulforhodamine B assay; conditions: UACC-257, 48 h, read-out: Activity
SNB-19 [7] = assay: Growth inhibition of human SNB19 cells assessed as cell growth at 3X10'-7 M after 48 hrs by sulforhodamine B assay; conditions: SNB-19, 48 h, read-out: Activity
A549 [8] = assay: Growth inhibition of human A549/ATCC cells assessed as cell growth at 3X10'-9 M after 48 hrs by sulforhodamine B assay; conditions: A549, 48 h, read-out: Activity
HCT-15 [9] = assay: Growth inhibition of human HCT15 cells assessed as cell growth at 3X10'-6 M after 48 hrs by sulforhodamine B assay; conditions: HCT-15, 48 h, read-out: Activity
SK-OV-3 = assay: Growth inhibition of human SKOV3 cells assessed as cell growth at 3X10'-5 M after 48 hrs by sulforhodamine B assay; conditions: SK-OV-3, 48 h, read-out: Activity
NCI-H226 [10] = assay: Growth inhibition of human NCI-H226 cells assessed as cell growth at 3X10'-6 M after 48 hrs by sulforhodamine B assay; conditions: NCI-H226, 48 h, read-out: Activity
LOX IMVI = assay: Growth inhibition of human LOXIMVI cells assessed as cell growth at 3X10'-9 M after 48 hrs by sulforhodamine B assay; conditions: read-out: Activity
NCI-H226 [11] = assay: Growth inhibition of human NCI-H226 cells assessed as cell growth at 3X10'-8 M after 48 hrs by sulforhodamine B assay; conditions: NCI-H226, 48 h, read-out: Activity
[12] = Growth inhibition of human Hs 578T cells assessed as cell growth at 3X10'-8 M after 48 hrs by sulforhodamine B assay; conditions: read-out: Activity
A549 [13] = assay: Growth inhibition of human A549/ATCC cells assessed as cell growth at 3X10'-7 M after 48 hrs by sulforhodamine B assay; conditions: A549, 48 h, read-out: Activity
MDA-MB-231 = assay: Growth inhibition of human MDA-MB-231 cells assessed as cell growth at 3X10'-5 M after 48 hrs by sulforhodamine B assay; conditions: MDA-MB-231, 48 h, read-out: Activity
HOP-62 = assay: Growth inhibition of human HOP62 cells assessed as cell growth at 3X10'-6 M after 48 hrs by sulforhodamine B assay; conditions: HOP-62, 48 h, read-out: Activity
NCI-H23 [14] = assay: Growth inhibition of human NCI-H23 cells assessed as cell growth at 3X10'-9 M after 48 hrs by sulforhodamine B assay; conditions: NCI-H23, 48 h, read-out: Activity
MDA-MB-468 [15] = assay: Growth inhibition of human MDA-MB-468 cells assessed as cell growth at 3X10'-7 M after 48 hrs by sulforhodamine B assay; conditions: MDA-MB-468, 48 h, read-out: Activity
M14 = assay: Growth inhibition of human M14 cells assessed as cell growth at 3X10'-6 M after 48 hrs by sulforhodamine B assay; conditions: M14, 48 h, read-out: Activity
OVCAR-8 = assay: Growth inhibition of human OVCAR8 cells assessed as cell growth at 3X10'-6 M after 48 hrs by sulforhodamine B assay; conditions: OVCAR-8, 48 h, read-out: Activity
HCT-116 [16] = assay: Growth inhibition of human HCT116 cells assessed as cell growth at 3X10'-6 M after 48 hrs by sulforhodamine B assay; conditions: HCT-116, 48 h, read-out: Activity
HCT-116 [17] = assay: Growth inhibition of human HCT116 cells assessed as cell growth at 3X10'-5 M after 48 hrs by sulforhodamine B assay; conditions: HCT-116, 48 h, read-out: Activity
MDA-MB-435 = assay: Growth inhibition of human MDA-MB-435 cells assessed as cell growth at 3X10'-5 M after 48 hrs by sulforhodamine B assay; conditions: MDA-MB-435, 48 h, read-out: Activity
SNB-75 = assay: Growth inhibition of human SNB75 cells assessed as cell growth at 3X10'-7 M after 48 hrs by sulforhodamine B assay; conditions: SNB-75, 48 h, read-out: Activity
UACC-257 [18] = assay: Growth inhibition of human UACC257 cells assessed as cell growth at 3X10'-7 M after 48 hrs by sulforhodamine B assay; conditions: UACC-257, 48 h, read-out: Activity
SNB-19 [19] = assay: Growth inhibition of human SNB19 cells assessed as cell growth at 3X10'-5 M after 48 hrs by sulforhodamine B assay; conditions: SNB-19, 48 h, read-out: Activity
UACC-62 = assay: Growth inhibition of human UACC62 cells assessed as cell growth at 3X10'-8 M after 48 hrs by sulforhodamine B assay; conditions: UACC-62, 48 h, read-out: Activity
A498 = assay: Growth inhibition of human A498 cells assessed as cell growth at 3X10'-6 M after 48 hrs by sulforhodamine B assay; conditions: A498, 48 h, read-out: Activity
786-0 = assay: Growth inhibition of human 786-0 cells assessed as cell growth at 3X10'-9 M after 48 hrs by sulforhodamine B assay; conditions: 786-0, 48 h, read-out: Activity
SK-MEL-28 = assay: Growth inhibition of human SK-MEL-28 cells assessed as cell growth at 3X10'-6 M after 48 hrs by sulforhodamine B assay; conditions: SK-MEL-28, 48 h, read-out: Activity
OVCAR-4 = assay: Growth inhibition of human OVCAR4 cells assessed as cell growth at 5X10'-6 M after 48 hrs by sulforhodamine B assay; conditions: OVCAR-4, 48 h, read-out: Activity

| Structure (SMILES) | growth at 30 µM (CCRF-CEM) [%] | growth at 3 µM (U-251) [%] | growth at 3 µM (MDA-MB-468 [2]) [%] | growth at 0.3 µM (HCT-116 [3]) [%] | growth at 30 µM (DU-145) [%] | growth at 0.003 µM (NCI-H322M) [%] | growth at 0.003 µM (MDA-MB-468 [4]) [%] | growth at 0.003 µM (KM12) [%] | growth at 0.3 µM (HCT-15 [5]) [%] | growth at 0.03 µM (UACC-257 [6]) [%] | growth at 0.3 µM (SNB-19 [7]) [%] | growth at 0.003 µM (A549 [8]) [%] | growth at 3 µM (HCT-15 [9]) [%] | growth at 3 µM (NCI-H226 [10]) [%] | growth at 0.003 µM (LOX IMVI) [%] | growth at 0.03 µM (NCI-H226 [11]) [%] | growth at 0.03 µM [12] [%] | growth at 0.3 µM (A549 [13]) [%] | growth at 30 µM (MDA-MB-231) [%] | growth at 3 µM (HOP-62) [%] | also measured |
| --- | --- | --- | --- | --- | --- | --- | --- | --- | --- | --- | --- | --- | --- | --- | --- | --- | --- | --- | --- | --- | --- |
| O=C(Nc1cccc(-n2cc(-c3ccncc3)c(-c3ccc(Cl)c(O)c3)n2)c1)Nc1cc(C(F)(F)F)cc(C(F)(F)F)c1 | – | – | – | – | – | – | – | – | – | – | – | – | – | – | – | – | – | – | – | – | growth at 5 µM (NCI-H23 [1]): -18% |
| COc1cc(-c2nn(-c3cccc(NC(=O)Nc4ccc(Cl)c(C(F)(F)F)c4)c3)cc2-c2ccncc2)ccc1Cl | 2 | 7 | 6 | 99 | 2 | 93 | 101 | 103 | 95 | 90 | 94 | 95 | 18 | 38 | 97 | 92 | 89 | 89 | -76 | 22 | growth at 30 µM (SK-OV-3): -14%; growth at 0.003 µM (NCI-H23 [14]): 100%; growth at 0.3 µM (MDA-MB-468 [15]): 81%; growth at 3 µM (M14): 4%; growth at 3 µM (OVCAR-8): 5%; growth at 3 µM (HCT-116 [16]): 11%; growth at 30 µM (HCT-116 [17]): -63%; growth at 30 µM (MDA-MB-435): -50%; growth at 0.3 µM (SNB-75): 88%; growth at 0.3 µM (UACC-257 [18]): 91%; growth at 30 µM (SNB-19 [19]): -23%; growth at 0.03 µM (UACC-62): 94%; growth at 3 µM (A498): 12%; growth at 0.003 µM (786-0): 101%; growth at 3 µM (SK-MEL-28): 16% |
| O=C(Nc1cccc(-n2cc(-c3ccncc3)c(-c3ccc(Cl)c(O)c3)n2)c1)Nc1cccc(C(F)(F)F)c1 | 7 | 29 | 17 | 98 | 9 | 95 | 95 | 94 | 96 | 100 | 96 | 97 | 27 | 66 | 97 | 100 | 91 | 93 | -5 | 70 | growth at 30 µM (SK-OV-3): 15%; growth at 0.003 µM (NCI-H23 [14]): 94%; growth at 0.3 µM (MDA-MB-468 [15]): 81%; growth at 3 µM (M14): 21%; growth at 3 µM (OVCAR-8): 31%; growth at 3 µM (HCT-116 [16]): 23%; growth at 30 µM (HCT-116 [17]): -34%; growth at 30 µM (MDA-MB-435): -19%; growth at 0.3 µM (SNB-75): 85%; growth at 0.3 µM (UACC-257 [18]): 92%; growth at 30 µM (SNB-19 [19]): 20%; growth at 0.03 µM (UACC-62): 96%; growth at 3 µM (A498): 44%; growth at 0.003 µM (786-0): 98%; growth at 3 µM (SK-MEL-28): 55% |
| COc1cc(-c2nn(-c3cccc(NC(=O)Nc4cccc(C(F)(F)F)c4)c3)cc2-c2ccncc2)ccc1Cl | – | – | – | – | – | – | – | – | – | – | – | – | – | – | – | – | – | – | – | – | growth at 5 µM (NCI-H23 [1]): -18%; growth at 5 µM (OVCAR-4): 6% |
| O=C(Nc1cccc(-n2cc(-c3ccncc3)c(-c3ccc(Cl)c(O)c3)n2)c1)Nc1ccc(Cl)c(Cl)c1 | 5 | 25 | 2 | 99 | 9 | 95 | 90 | 97 | 99 | 93 | 101 | 96 | 14 | 28 | 96 | 97 | 71 | 85 | -22 | 35 | growth at 0.003 µM (NCI-H23 [14]): 90%; growth at 0.3 µM (MDA-MB-468 [15]): 76%; growth at 3 µM (M14): 14%; growth at 3 µM (OVCAR-8): 16%; growth at 3 µM (HCT-116 [16]): 13%; growth at 30 µM (HCT-116 [17]): -39%; growth at 30 µM (MDA-MB-435): -38%; growth at 0.3 µM (SNB-75): 83%; growth at 0.3 µM (UACC-257 [18]): 93%; growth at 30 µM (SNB-19 [19]): 18%; growth at 0.03 µM (UACC-62): 102%; growth at 3 µM (A498): -1%; growth at 0.003 µM (786-0): 97%; growth at 3 µM (SK-MEL-28): 25% |
